This passage reports IC50 results from US8883782B2, “Spiro-tetracyclic ring compounds as beta-secretase modulators and methods of use” (Amgen Inc., priority 2010, dated 2014).

For assay [1], the target named is Beta Secretase enzyme (BACE) (Homo sapiens, UniProt P56817). Kind of assay: In vitro enzymatic BACE FRET (fluorescence resonance energy transfer) assay. The assay is classed as biochemical. The following applies: average IC50, enzyme assay; read-out: BACE 1 FRET assay. The method in brief: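 Buffer 0.05 M acetate pH 4.2, 10% DMSO final, 100 uM genapol (sub-CMC); start with 50 nM FRET substrate; 1 h incubation; Tris stop; fluorescence read.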
Sequence of Beta Secretase enzyme (BACE) (P56817 46-501, species assumed): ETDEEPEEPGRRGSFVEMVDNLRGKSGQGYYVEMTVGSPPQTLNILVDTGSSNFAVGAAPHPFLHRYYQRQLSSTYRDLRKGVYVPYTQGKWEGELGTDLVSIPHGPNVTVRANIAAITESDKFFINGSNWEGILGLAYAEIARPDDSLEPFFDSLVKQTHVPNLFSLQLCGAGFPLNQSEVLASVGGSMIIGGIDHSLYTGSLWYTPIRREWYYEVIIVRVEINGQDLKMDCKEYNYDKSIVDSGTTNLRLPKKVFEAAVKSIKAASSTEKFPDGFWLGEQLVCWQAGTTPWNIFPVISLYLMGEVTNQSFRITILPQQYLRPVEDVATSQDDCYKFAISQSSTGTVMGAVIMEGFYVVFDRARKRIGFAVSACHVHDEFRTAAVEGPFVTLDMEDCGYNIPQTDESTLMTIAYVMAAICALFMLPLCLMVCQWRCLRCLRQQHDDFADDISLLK

For assay [2], the system named is Aβ40 in conditioned medium of cells stably expressing Amyloid Precursor Protein (APP). As to the kind of experiment: In vitro BACE cell-based assay (Aβ40 in conditioned medium, sandwich ELISA). The following applies: Homo sapiens, HEK293, average IC50; read-out: HEK cell assay. The essentials:
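Step two: 10-point compound titration added, starting 100 μM or 10 μM, 0.1% DMSO. Step three: medium Aβ40 measured by ELISA, capture 3 h and detection 2 h at 4° C, TRF read.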

With `NC1=N[C@@]2(CS1)c1cc(-c3cccnc3F)ccc1Oc1ncc(-c3ccnc(F)c3)cc12` [Example 767, (5S)-7-(2-fluoro-3-pyridinyl)-3-(2-fluoro-4-pyridinyl)spiro[chromeno[2,3-b]pyridine-5,4′-[1,3]thiazol]-2′-amine], the results for the IC50 in assay [1] and in assay [2] were 1 nM and 23 nM, respectively.
For `NC1=N[C@@]2(CS1)c1cc(-c3cnccc3F)ccc1Oc1ncc(C3=CCOCC3)cc12` [Example 768, (5S)-3-(3,6-dihydro-2H-pyran-4-yl)-7-(4-fluoro-3-pyridinyl)spiro[chromeno[2,3-b]pyridine-5,4′-[1,3]thiazol]-2′-amine], the figures for the IC50 in assay [1] and in assay [2] were 1.2 nM and 16 nM, respectively.
Turning to `NC1=N[C@@]2(CS1)c1cc(-c3cnccc3F)ccc1Oc1ncc(-c3cccnc3)cc12` [Example 769, (5S)-7-(4-fluoro-3-pyridinyl)-3-(3-pyridinyl)spiro[chromeno[2,3-b]pyridine-5,4′-[1,3]thiazol]-2′-amine], the IC50 came out at 2.3 nM in assay [1] and 44 nM in assay [2].
For the compound `NC1=N[C@@]2(CS1)c1cc(-c3cncc(F)c3)ccc1Oc1ncc(C3=CCCOC3)cc12` [Example 770, (5S)-3-(5,6-dihydro-2H-pyran-3-yl)-7-(5-fluoro-3-pyridinyl)spiro[chromeno[2,3-b]pyridine-5,4′-[1,3]thiazol]-2′-amine], the IC50 in assay [1] was found to be 0.6 nM; in assay [2] it was 10 nM.
On to `NC1=N[C@@]2(CS1)c1cc(-c3cncc(F)c3)ccc1Oc1ncc(-c3ncccn3)cc12` [Example 771, (5S)-7-(5-fluoro-3-pyridinyl)-3-(2-pyrimidinyl)spiro[chromeno[2,3-b]pyridine-5,4′-[1,3]thiazol]-2′-amine], for which the IC50 in assay [1] came out at 4.6 nM; in assay [2], 96 nM.
For `CC#Cc1cncc(-c2ccc3c(c2)[C@@]2(CSC(N)=N2)c2cc(C4=CCOCC4)cnc2O3)c1` [Example 772, (5S)-3-(3,6-dihydro-2H-pyran-4-yl)-7-(5-(1-propyn-1-yl)-3-pyridinyl)spiro[chromeno[2,3-b]pyridine-5,4′-[1,3]thiazol]-2′-amine], the IC50 in assay [1] stood at 0.5 nM; in assay [2] it was 2 nM.
Turning to `NC1=N[C@@]2(CS1)c1cc(-c3cnccc3F)ccc1Oc1ncc(C3=CCCOC3)cc12` [Example 773, (5S)-3-(5,6-dihydro-2H-pyran-3-yl)-7-(4-fluoro-3-pyridinyl)spiro[chromeno[2,3-b]pyridine-5,4′-[1,3]thiazol]-2′-amine], the IC50 in assay [1] was found to be 0.8 nM; in assay [2] it was 14 nM.
As to `CC1(C)CC(c2cnc3c(c2)[C@]2(CSC(N)=N2)c2cc(-c4cccnc4F)ccc2O3)=CCO1` [Example 774, (5S)-3-(2,2-dimethyl-3,6-dihydro-2H-pyran-4-yl)-7-(2-fluoro-3-pyridinyl)spiro[chromeno[2,3-b]pyridine-5,4′-[1,3]thiazol]-2′-amine], the figures for the IC50 in assay [1] and in assay [2] were 0.6 nM and 17 nM, respectively.
`CC#Cc1cncc(-c2cnc3c(c2)[C@]2(COC(N)=N2)c2cc(OC)ccc2O3)c1` [Example 775, (5S)-7-methoxy-3-(5-(1-propyn-1-yl)-3-pyridinyl)spiro[chromeno[2,3-b]pyridine-5,4′-[1,3]oxazol]-2′-amine]: the IC50 is 4830 nM in assay [1] and at least 10000 nM in assay [2].
The matching figures for `CC#Cc1cncc(-c2cc(F)c3c(c2)[C@]2(COC(N)=N2)c2cc(OC)ccc2O3)c1` [Example 776, (4S)-4′-fluoro-7′-methoxy-2′-(5-(1-propyn-1-yl)-3-pyridinyl)spiro[1,3-oxazole-4,9′-xanthen]-2-amine]: 2380 nM and at least 10000 nM.
For `CC#Cc1cncc(-c2cnc3c(c2)[C@]2(COC(N)=N2)c2cc(-c4cccnc4F)ccc2O3)c1` [Example 777, (5S)-7-(2-fluoro-3-pyridinyl)-3-(5-(1-propyn-1-yl)-3-pyridinyl)spiro[chromeno[2,3-b]pyridine-5,4′-[1,3]oxazol]-2′-amine], the IC50 in assay [1] came out at 106 nM; in assay [2], 3510 nM.
The matching figures for `N#Cc1cccc(-c2ccc3c(c2)[C@@]2(CSC(N)=N2)c2cc(C4=CCCOC4)cnc2O3)c1F` [Example 778, 3-((5S)-2′-amino-3-(5,6-dihydro-2H-pyran-3-yl)spiro[chromeno[2,3-b]pyridine-5,4′-[1,3]thiazol]-7-yl)-2-fluorobenzonitrile]: 2.8 nM and 54 nM.
As to `CC1(C)C=C(c2cnc3c(c2)[C@]2(CSC(N)=N2)c2cc(-c4cccc(C#N)c4F)ccc2O3)CCO1` [Example 779, 3-((5S)-2′-amino-3-(6,6-dimethyl-3,6-dihydro-2H-pyran-4-yl)spiro[chromeno[2,3-b]pyridine-5,4′-[1,3]thiazol]-7-yl)-2-fluorobenzonitrile], the IC50 in assay [1] came to 4.8 nM; in assay [2], 319 nM.
`CC1(C#Cc2cnc3c(c2)[C@]2(CSC(N)=N2)c2cc(-c4cccc(C#N)c4F)ccc2O3)COC1` [Example 780, 3-((5S)-2′-amino-3-((3-methyl-3-oxetanyl)ethynyl)spiro[chromeno[2,3-b]pyridine-5,4′-[1,3]thiazol]-7-yl)-2-fluorobenzonitrile]: the IC50 in assay [1] came out at 2 nM; in assay [2], 338 nM.
Regarding `CC#Cc1cncc(-c2ccc3c(c2)[C@@]2(CSC(N)=N2)c2cc(-c4ccnc(F)c4)cnc2O3)c1` [Example 781, (5S)-3-(2-fluoro-4-pyridinyl)-7-(5-(1-propyn-1-yl)-3-pyridinyl)spiro[chromeno[2,3-b]pyridine-5,4′-[1,3]thiazol]-2′-amine], the IC50 in assay [1] is 0.3 nM; in assay [2], 3 nM.
The matching figures for `CC#Cc1cncc(-c2ccc3c(c2)[C@@]2(CSC(N)=N2)c2cc(C#CC4(C)COC4)cnc2O3)c1` [Example 782, (5S)-3-((3-methyl-3-oxetanyl)ethynyl)-7-(5-(1-propyn-1-yl)-3-pyridinyl)spiro[chromeno[2,3-b]pyridine-5,4′-[1,3]thiazol]-2′-amine]: 0.9 nM and 4 nM.
The matching figures for `N#Cc1cc(-c2ccc3c(c2)[C@@]2(CSC(N)=N2)c2cc(C4=CCCOC4)cnc2O3)ccc1F` [Example 783, 5-((5S)-2′-amino-3-(5,6-dihydro-2H-pyran-3-yl)spiro[chromeno[2,3-b]pyridine-5,4′-[1,3]thiazol]-7-yl)-2-fluorobenzonitrile]: 0.6 nM and 10 nM.
Regarding `CC1(C)C=C(c2cnc3c(c2)[C@]2(CSC(N)=N2)c2cc(-c4ccc(F)c(C#N)c4)ccc2O3)CCO1` [Example 784, 5-((5S)-2′-amino-3-(6,6-dimethyl-3,6-dihydro-2H-pyran-4-yl)spiro[chromeno[2,3-b]pyridine-5,4′-[1,3]thiazol]-7-yl)-2-fluorobenzonitrile], the IC50 in assay [1] was 1.4 nM; in assay [2], 15 nM.
For `CC1(C#Cc2cnc3c(c2)[C@]2(CSC(N)=N2)c2cc(-c4ccc(F)c(C#N)c4)ccc2O3)COC1` [Example 785, 5-((5S)-2′-amino-3-((3-methyl-3-oxetanyl)ethynyl)spiro[chromeno[2,3-b]pyridine-5,4′-[1,3]thiazol]-7-yl)-2-fluorobenzonitrile], in that order: 1.6 nM and 13 nM.
`N#Cc1cc(-c2ccc3c(c2)[C@@]2(COC(N)=N2)c2cc(-c4ccnc(F)c4)cnc2O3)ccc1F` [Example 786, 5-((5S)-2′-amino-3-(2-fluoro-4-pyridinyl)spiro[chromeno[2,3-b]pyridine-5,4′-[1,3]oxazol]-7-yl)-2-fluorobenzonitrile]: the IC50 worked out at 10.5 nM in assay [1] and 41 nM in assay [2].
As to `CC1(C#Cc2cnc3c(c2)[C@]2(COC(N)=N2)c2cc(-c4ccc(F)c(C#N)c4)ccc2O3)COC1` [Example 787, 5-((5S)-2′-amino-3-((3-methyl-3-oxetanyl)ethynyl)spiro[chromeno[2,3-b]pyridine-5,4′-[1,3]oxazol]-7-yl)-2-fluorobenzonitrile], the IC50 in assay [1] amounted to 5.6 nM; in assay [2], 44 nM.
For `NC1=N[C@@]2(CS1)c1cc(-c3cnccc3F)ccc1Oc1ncc(-c3cccnc3F)cc12` [Example 788, (5S)-3-(2-fluoro-3-pyridinyl)-7-(4-fluoro-3-pyridinyl)spiro[chromeno[2,3-b]pyridine-5,4′-[1,3]thiazol]-2′-amine], the values for the IC50 in assay [1] and in assay [2] were 5 nM and 59 nM, respectively.
With `CC#Cc1cncc(-c2ccc3c(c2)[C@@]2(CSC(N)=N2)c2cc(-c4ncccn4)cnc2O3)c1` [Example 789, (5S)-7-(5-(1-propyn-1-yl)-3-pyridinyl)-3-(2-pyrimidinyl)spiro[chromeno[2,3-b]pyridine-5,4′-[1,3]thiazol]-2′-amine], the IC50 is 2.2 nM in assay [1] and 9 nM in assay [2].
In the case of `N#Cc1cccc(-c2ccc3c(c2)[C@@]2(CSC(N)=N2)c2cc(C4CCOCC4)cnc2O3)c1F` [Example 790, 3-((5S)-2′-amino-3-(tetrahydro-2H-pyran-4-yl)spiro[chromeno[2,3-b]pyridine-5,4′-[1,3]thiazol]-7-yl)-2-fluorobenzonitrile], the IC50 in assay [1] amounted to 14.5 nM; in assay [2] it was 97 nM.
For `NC1=N[C@@]2(CS1)c1cc(-c3cccnc3F)ccc1Oc1c(F)cc(C3=CCOCC3)cc12` [Example 791, (4S)-2′-(3,6-dihydro-2H-pyran-4-yl)-4′-fluoro-7′-(2-fluoro-3-pyridinyl)spiro[1,3-thiazole-4,9′-xanthen]-2-amine], in that order: 0.1 nM and 10 nM.
Take `NC1=N[C@@]2(CO1)c1cc(-c3cccnc3)ccc1Oc1c(F)cc(N3CCCC3=O)cc12` [Example 792, 1-((4S)-2-amino-4′-fluoro-7′-(3-pyridinyl)spiro[1,3-oxazole-4,9′-xanthen]-2′-yl)-2-pyrrolidinone]: the results for the IC50 in assay [1] and in assay [2] were 5.1 nM and 30 nM, respectively.
